Results as given in BindingDB's records for patent US20260001888 (Merck Sharp & Dohme, 2026).

biological target: High affinity cGMP-specific 3',5'-cyclic phosphodiesterase 9A (Homo sapiens, UniProt O76083); experiment: PDE9 Inhibitory Activity Assay
Description: Human PDE9 (PDE9A2, GenBank Accession No. NM_001001567), full length with N-terminal GST tag, was purchased from BPS Bioscience. The fluorescence polarization assay for cyclic nucleotide phosphodiesterases was performed using an IMAP FP kit supplied by Molecular Devices, Sunnyvale, CA (product #R8139). IMAP technology has been applied previously to phosphodiesterase assays (Huang, W., et al., J. Biomol Screen, 2002, 7:215). Assays were performed at room temperature in 384-well microtiter plates with an incubation volume of 20.2 μL. Solutions of test compounds were prepared in DMSO and serially diluted with DMSO to yield 8 μL of each of 10 solutions differing by 3-fold in concentration, at 32 serial dilutions per plate. 100% inhibition is determined using a known PDE9 inhibitor, such as 1-(2-chlorophenyl)-6-[(2R)-3,3,3-trifluoro-2-methylpropyl]-1,5-dihydro-4H-pyrazolo[3,4-d]pyrimidine-4-one (BAY 73-6691) (Wunder et al, Mol. Pharmacol., 2005, 68 (6): 1775-81), (6-[(3S,4S)-4-methyl-1-(pyrimidin-2-ylmethyl) pyrrolidin-3-yl]-1-(tetrahydro-2H-pyran-4-yl)-1,5-dihydro-4H-pyrazolo[3,4-d]pyrimidin-4-one (PF-04447943) (Wager et al., ACS Chemical Neuroscience, 2010, 1:435-449). 0% of inhibition is determined by using DMSO (1% final concentrations). A Labcyte Echo 555 (Labcyte, Sunnyvale, CA) is used to dispense 200 nL from each well of the titration plate to the 384 well assay plate. Human PDE9A2 membrane preps were diluted to 1 ng/ml. […] PDE9 enzyme mix and compounds were mixed and incubated at room temperature for 30 min. Following which, FAMcGMP substrate was added, shaken and incubated for an additional 60 min at room temperature. The final concentration of human PDE9 membrane preparations were 0.5 ng/ml. The final concentration of FAM-cGMP was 50 nM. After the incubation period, the enzymatic reaction was stopped by addition of binding solution (IMAP-FP, Molecular Devices, comprised of 80% Solution A, 20% Solution B and a 1:600 dilution of binding reagent) to each well. The plates were shaken then incubated at room temperature for 1 h prior to determining the fluorescence polarization (mP) using a Perkin Elmer En Vision™ plate reader (Waltham, MA).

Sequence of High affinity cGMP-specific 3',5'-cyclic phosphodiesterase 9A (O76083 whole entry): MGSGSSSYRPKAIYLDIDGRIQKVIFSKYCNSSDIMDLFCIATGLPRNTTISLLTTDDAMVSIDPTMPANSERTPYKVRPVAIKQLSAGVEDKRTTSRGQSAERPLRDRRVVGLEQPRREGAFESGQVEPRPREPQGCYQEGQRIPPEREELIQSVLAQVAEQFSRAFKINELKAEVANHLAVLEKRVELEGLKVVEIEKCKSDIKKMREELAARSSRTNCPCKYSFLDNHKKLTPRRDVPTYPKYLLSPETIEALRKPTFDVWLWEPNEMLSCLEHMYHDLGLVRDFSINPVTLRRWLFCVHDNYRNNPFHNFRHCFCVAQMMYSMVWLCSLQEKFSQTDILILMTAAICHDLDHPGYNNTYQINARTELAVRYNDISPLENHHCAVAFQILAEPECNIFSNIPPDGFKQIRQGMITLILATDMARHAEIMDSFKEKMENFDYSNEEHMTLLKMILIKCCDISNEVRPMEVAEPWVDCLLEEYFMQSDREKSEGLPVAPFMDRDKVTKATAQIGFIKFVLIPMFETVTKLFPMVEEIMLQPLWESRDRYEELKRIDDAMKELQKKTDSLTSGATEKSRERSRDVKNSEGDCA

| Ki | SMILES |
| --- | --- |
| 1.06 nM | CCC(c1ncc(OC(F)(F)F)cn1)N(C)c1nc2c(c(C#N)nn2C(C)c2ccc(C(F)(F)F)nc2)c(=O)[nH]1 (single isomer, unassigned; form 2) [US20260001888, Example 60] |
| 50.7 nM | CCC(c1ncc(OC(F)(F)F)cn1)N(C)c1nc2c(c(C#N)nn2C(C)c2ccc(C(F)(F)F)nc2)c(=O)[nH]1 (single isomer, unassigned; form 4) [US20260001888, Example 62] |
| 12.1 nM | CCC(c1ncc(OC(F)(F)F)cn1)N(C)c1nc2c(c(C#N)nn2C(C)c2ccc(C(F)(F)F)nc2)c(=O)[nH]1 (single isomer, unassigned; form 1) [US20260001888, Example 59] |
| 0.17 nM | CCC(c1ncc(OC(F)(F)F)cn1)N(C)c1nc2c(c(C#N)nn2C(C)c2ccc(C(F)(F)F)nc2)c(=O)[nH]1 (single isomer, unassigned; form 3) [US20260001888, Example 61] |
